Measured values as given in US12617779B2, “Self degradation-type CDK9 inhibitor prodrug and liposome encapsulating same” (Sumitomo Pharma Co., Ltd., priority 2021, dated 2026).

Assays:
[1] = Evaluation of conversion rate to active form in buffer solution (Experimental Example 1); format: physicochemical; settings: for Production rate of Alvocidib / Residual rate: 37° C., 25 umol/L in buffer solution; for Stability in buffer solution at pH 5: pH 5, 37° C., up to 2 or 3 hours; for Conversion to Alvocidib at pH 7.4: pH 7.4, 37° C., up to 3 hours
How it was run: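 Conversion to Alvocidib was followed by HPLC over 3 hours at 37° C, with test compounds at 25 umol/L in 50 mM citrate or phosphate buffers spanning pH 5.0–7.4.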

[2] = Evaluation of conversion rate to active form in human plasma (Experimental Example 3); format: in vitro ADME; settings: 0.2 μmol/L, 37° C.; for Residual rate (%) of test compound: Human plasma; for Conversion to Alvocidib in human plasma: Examples up to 60 minutes, Comparative Examples up to 120 minutes
How it was run: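 Test compound at 0.2 μmol/L was incubated at 37° C in human or BALB/c mouse plasma and sampled at 0, 30 and 60 min or at 0, 60 and 120 min. Compound and Alvocidib were quantified by LC-MS/MS peak area. Attrition is relative to 0 min; conversion is relative to 0.2 μmol/L Alvocidib reference.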

## CN1CC[C@H](c2c(OC(=O)N(C)C[C@@H]3CCCCN3)cc(O)c3c(=O)cc(-c4ccccc4Cl)oc23)[C@H](O)C1 [Example 3, 2-(2-chlorophenyl)-5-hydroxy-8-[(3S,4R)-3-hydroxy-1-methylpiperidin-4-yl]-4-oxo-4H-1-benzopyran-7-yl methyl{[(2S)-piperidin-2-yl]methyl}carbamate]
[1]; pH5.0, 0 hr
  Production rate of Alvocidib: 0.2%
  Residual rate: 99.8%
[1]
  Stability in buffer solution at pH 5: stable
  Conversion to Alvocidib at pH 7.4: rapidly converted to Alvocidib
[1]; pH5.0, 0.5 hr
  Production rate of Alvocidib: 0.9%
  Residual rate: 99.1%
[1]; pH5.0, 1 hr
  Production rate of Alvocidib: 1.3%
  Residual rate: 98.7%
[1]; pH5.0, 2 hr
  Production rate of Alvocidib: 2.2%
  Residual rate: 97.8%
[1]; pH5.0, 3 hr
  Production rate of Alvocidib: 3.1%
  Residual rate: 96.9%
[1]; pH5.5, 0 hr
  Production rate of Alvocidib: 0.3%
  Residual rate: 99.7%
[1]; pH5.5, 0.5 hr
  Production rate of Alvocidib: 1.8%
  Residual rate: 98.2%
[1]; pH5.5, 1 hr
  Production rate of Alvocidib: 2.7%
  Residual rate: 97.3%
[1]; pH5.5, 2 hr
  Production rate of Alvocidib: 4.7%
  Residual rate: 95.3%
[1]; pH5.5, 3 hr
  Production rate of Alvocidib: 6.5%
  Residual rate: 93.5%
[1]; pH6.0, 0 hr
  Production rate of Alvocidib: 0.3%
  Residual rate: 99.7%
[1]; pH6.0, 0.5 hr
  Production rate of Alvocidib: 4.5%
  Residual rate: 95.5%
[1]; pH6.0, 1 hr
  Production rate of Alvocidib: 7.6%
  Residual rate: 92.2%
[1]; pH6.0, 2 hr
  Production rate of Alvocidib: 14.1%
  Residual rate: 85.3%
[1]; pH6.0, 3 hr
  Production rate of Alvocidib: 19.8%
  Residual rate: 79.4%
[1]; pH6.5, 0 hr
  Production rate of Alvocidib: 0.3%
  Residual rate: 99.7%
[1]; pH6.5, 0.5 hr
  Production rate of Alvocidib: 10.6%
  Residual rate: 88.9%
[1]; pH6.5, 1 hr
  Production rate of Alvocidib: 18.3%
  Residual rate: 80.9%
[1]; pH6.5, 2 hr
  Production rate of Alvocidib: 33.5%
  Residual rate: 65.3%
[1]; pH6.5, 3 hr
  Production rate of Alvocidib: 44.6%
  Residual rate: 53.9%
[1]; pH7.0, 0 hr
  Production rate of Alvocidib: 0.6%
  Residual rate: 99.4%
[1]; pH7.0, 0.5 hr
  Production rate of Alvocidib: 26.8%
  Residual rate: 72.2%
[1]; pH7.0, 1 hr
  Production rate of Alvocidib: 43.2%
  Residual rate: 55.3%
[1]; pH7.0, 2 hr
  Production rate of Alvocidib: 65.2%
  Residual rate: 20.2%
[1]; pH7.0, 3 hr
  Production rate of Alvocidib: 74.5%
  Residual rate: 8.0%
[1]; pH7.4, 0 hr
  Production rate of Alvocidib: 0.9%
  Residual rate: 99.1%
[1]; pH7.4, 0.5 hr
  Production rate of Alvocidib: 49.0%
  Residual rate: 49.4%
[1]; pH7.4, 1 hr
  Production rate of Alvocidib: 67.8%
  Residual rate: 17.0%
[1]; pH7.4, 2 hr
  Production rate of Alvocidib: 80.4%
  Residual rate: 0.0%
[1]; pH7.4, 3 hr
  Production rate of Alvocidib: 82.5%
  Residual rate: 0.0%
[2]; 0 min
  Residual rate (%) of test compound: 100%
[2]; 30 min
  Residual rate (%) of test compound: 3%
[2]; 60 min
  Residual rate (%) of test compound: 0%
[2]
  Conversion to Alvocidib in human plasma: proceeded rapidly

## CN1CC[C@H](c2c(OC(=O)N(C)C[C@H]3CCCCN3)cc(O)c3c(=O)cc(-c4ccccc4Cl)oc23)[C@H](O)C1 [Example 4, 2-(2-chlorophenyl)-5-hydroxy-8-[(3S,4R)-3-hydroxy-1-methylpiperidin-4-yl]-4-oxo-4H-1-benzopyran-7-yl methyl{[(2R)-piperidin-2-yl]methyl}carbamate]
[1]; pH5.0, 0 hr
  Production rate of Alvocidib: 0.5%
  Residual rate: 99.3%
[1]
  Stability in buffer solution at pH 5: stable
  Conversion to Alvocidib at pH 7.4: rapidly converted to Alvocidib
[1]; pH5.0, 0.5 hr
  Production rate of Alvocidib: 0.8%
  Residual rate: 98.5%
[1]; pH5.0, 1 hr
  Production rate of Alvocidib: 1.1%
  Residual rate: 98.0%
[1]; pH5.0, 2 hr
  Production rate of Alvocidib: 1.7%
  Residual rate: 96.8%
[1]; pH5.0, 3 hr
  Production rate of Alvocidib: 2.3%
  Residual rate: 95.6%
[1]; pH5.5, 0 hr
  Production rate of Alvocidib: 0.4%
  Residual rate: 99.2%
[1]; pH5.5, 0.5 hr
  Production rate of Alvocidib: 1.5%
  Residual rate: 97.1%
[1]; pH5.5, 1 hr
  Production rate of Alvocidib: 2.2%
  Residual rate: 95.5%
[1]; pH5.5, 2 hr
  Production rate of Alvocidib: 4.0%
  Residual rate: 91.4%
[1]; pH5.5, 3 hr
  Production rate of Alvocidib: 5.5%
  Residual rate: 87.9%
[1]; pH6.0, 0 hr
  Production rate of Alvocidib: 0.4%
  Residual rate: 99.3%
[1]; pH6.0, 0.5 hr
  Production rate of Alvocidib: 3.7%
  Residual rate: 91.9%
[1]; pH6.0, 1 hr
  Production rate of Alvocidib: 6.4%
  Residual rate: 85.6%
[1]; pH6.0, 2 hr
  Production rate of Alvocidib: 12.0%
  Residual rate: 72.4%
[1]; pH6.0, 3 hr
  Production rate of Alvocidib: 16.6%
  Residual rate: 61.7%
[1]; pH6.5, 0 hr
  Production rate of Alvocidib: 0.5%
  Residual rate: 99.3%
[1]; pH6.5, 0.5 hr
  Production rate of Alvocidib: 9.0%
  Residual rate: 79.5%
[1]; pH6.5, 1 hr
  Production rate of Alvocidib: 15.1%
  Residual rate: 65.1%
[1]; pH6.5, 2 hr
  Production rate of Alvocidib: 26.1%
  Residual rate: 39.7%
[1]; pH6.5, 3 hr
  Production rate of Alvocidib: 32.7%
  Residual rate: 24.9%
[1]; pH7.0, 0 hr
  Production rate of Alvocidib: 0.6%
  Residual rate: 98.8%
[1]; pH7.0, 0.5 hr
  Production rate of Alvocidib: 21.3%
  Residual rate: 51.3%
[1]; pH7.0, 1 hr
  Production rate of Alvocidib: 31.6%
  Residual rate: 27.7%
[1]; pH7.0, 2 hr
  Production rate of Alvocidib: 41.1%
  Residual rate: 0.0%
[1]; pH7.0, 3 hr
  Production rate of Alvocidib: 43.3%
  Residual rate: 0.0%
[1]; pH7.4, 0 hr
  Production rate of Alvocidib: 0.8%
  Residual rate: 98.4%
[1]; pH7.4, 0.5 hr
  Production rate of Alvocidib: 34.8%
  Residual rate: 21.5%
[1]; pH7.4, 1 hr
  Production rate of Alvocidib: 42.0%
  Residual rate: 0.0%
[1]; pH7.4, 2 hr
  Production rate of Alvocidib: 44.6%
  Residual rate: 0.0%
[1]; pH7.4, 3 hr
  Production rate of Alvocidib: 44.6%
  Residual rate: 0.0%
[2]; 0 min
  Residual rate (%) of test compound: 100%
[2]; 30 min
  Residual rate (%) of test compound: 4%
[2]; 60 min
  Residual rate (%) of test compound: 4%
[2]
  Conversion to Alvocidib in human plasma: proceeded rapidly
